From patent US20240246934A1, “QUINAZOLINE-BASED COMPOUND, COMPOSITION, AND APPLICATION OF QUINAZOLINE-BASED COMPOUND” (BEIJING SCITECH-MQ PHARMACEUTICALS LIMITED, priority 2021, published 2024)

Assays:
[1] = target: Ba/F3 EGFR D770_N771insSVD cells (Homo sapiens, UniProt P00533, DUP768-770, cells depend on it); assay: Inhibition of cell proliferation, CTG method, Ba/F3 EGFR D770_N771insSVD; assay type: cell-based; settings: 72 hours, read-out: Ba/F3 EGFR D770_N771insSVD IC50
Source text: The present application examined the in vitro anti-proliferative activity of the compounds of the present disclosure against in vitro cultured BT474, NCI-N87, Ba/F3-EGFR-VIII and Ba/F3 HER2 A775_G776insYVMA and Ba/F3 EGFR D770_N771insSVD cell lines by CTG method.
Reagents and consumables: RPMI1640 (ThermoFisher, Cat. No. C11875500BT); fetal bovine serum (Hyclone, Cat. No. SV30087.03); 0.25% trypsin-EDTA (ThermoFisher, Cat. No. 25200-072); penicillin-streptomycin (Hyclone, Cat. No. SV30010); DMSO (Amresco, Cat. No. 0231-500ML); CTG assay kit (Promega, Cat. No. G924C); 96-well plate (Corning, Cat. No. 3603); multifunctional plate reader (Perkin Elmer, Cat. No. Envision)
Cell lines: BT474 (from the cell bank of Chinese Academy of Sciences), NCI-N87 (from ATCC), Ba/F3-EGFR-VIII, Ba/F3 HER2 A775_G776insYVMA and Ba/F3 EGFR D770_N771insSVD (all from KYinno Biotechnology (Beijing) Co., Ltd.); all of the above cells were cultured with RPMI1640 medium containing 10% fetal bovine serum, 100 U/mL penicillin, and 100 μg/mL streptomycin in the culture process.
1. The assay compound was dissolved with DMSO to form a stock solution and a gradient dilution was performed, followed by dilution with the corresponding medium to obtain a solution with 5-fold working concentration.
2. Cells in logarithmic growth phase were adjusted to specific cell densities by dilution with culture medium, and 80 μL of cell suspension was added to a 96-well plate, such that plating densities of cells of BT474, NCI-N87, Ba/F3-EGFR-VIII, Ba/F3 HER2 A775_G776insYVMA and Ba/F3 EGFR D770_N771insSVD were all 3000 cells/well. The cells of Ba/F3-EGFR-VIII, Ba/F3 HER2 A775_G776insYVMA and Ba/F3 EGFR D770_N771insSVD were used directly in the next step (treatment with compound), whereas the BT474 and NCI-N87 needed to be cultured overnight in a 37° C., 5% carbon dioxide gas incubator to adhere to the wall, and then treated with compounds.
3. 20 μL of compound solution was added to each well of the 96-well plate that had been inoculated with cells. The highest concentration of the assayed compound was 10 μM, 4-fold serial dilution, a total of 9 concentrations, and duplicate wells. A control group without compound was also set up.
4. The cells were cultured for another 72 hours, and then cell viability was detected by CTG assay kit. Signal values were read with a multifunctional plate reader (Perkin Elmer). GraphPad Prism software was used to create a dose-response curve and IC50 was calculated.

[2] = target: T1, HER2 kinase (Homo sapiens, UniProt P04626); assay: HER2 kinase assay (ULight/PT66 TR-FRET); assay type: biochemical
T1 construct: purchased Carna Biosciences 08-016
How it was run: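 HER2 kinase preincubated 5 min with compounds (11-point 3-fold series, duplicates), then reacted 120 min at room temperature with ATP and ULight-poly GT peptide, each prepared at 4× working concentration (40 μM ATP, 400 nM substrate, 40 nM kinase). PT66 antibody added for 60 min, TR-FRET read; IC50 from inhibition curves.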

[3] = target: EGFR^WT kinase (Homo sapiens, UniProt P00533); assay: EGFR^WT kinase assay (ULight/PT66 TR-FRET); assay type: biochemical
How it was run: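 Enzyme preincubated 5 min with compound (11-point 3-fold series, duplicate), then ULight-JAK-1 (Tyr1023) peptide and ATP added at 4× stocks of 400 nM and 600 μM; 120 min reaction at room temperature. PT66 antibody TR-FRET read after 60 min; IC50 fitted from inhibition rates.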

Ba/F3 EGFR D770_N771insSVD cells, sequence (P00533 with tags, fused parts or gaps DUP768-770): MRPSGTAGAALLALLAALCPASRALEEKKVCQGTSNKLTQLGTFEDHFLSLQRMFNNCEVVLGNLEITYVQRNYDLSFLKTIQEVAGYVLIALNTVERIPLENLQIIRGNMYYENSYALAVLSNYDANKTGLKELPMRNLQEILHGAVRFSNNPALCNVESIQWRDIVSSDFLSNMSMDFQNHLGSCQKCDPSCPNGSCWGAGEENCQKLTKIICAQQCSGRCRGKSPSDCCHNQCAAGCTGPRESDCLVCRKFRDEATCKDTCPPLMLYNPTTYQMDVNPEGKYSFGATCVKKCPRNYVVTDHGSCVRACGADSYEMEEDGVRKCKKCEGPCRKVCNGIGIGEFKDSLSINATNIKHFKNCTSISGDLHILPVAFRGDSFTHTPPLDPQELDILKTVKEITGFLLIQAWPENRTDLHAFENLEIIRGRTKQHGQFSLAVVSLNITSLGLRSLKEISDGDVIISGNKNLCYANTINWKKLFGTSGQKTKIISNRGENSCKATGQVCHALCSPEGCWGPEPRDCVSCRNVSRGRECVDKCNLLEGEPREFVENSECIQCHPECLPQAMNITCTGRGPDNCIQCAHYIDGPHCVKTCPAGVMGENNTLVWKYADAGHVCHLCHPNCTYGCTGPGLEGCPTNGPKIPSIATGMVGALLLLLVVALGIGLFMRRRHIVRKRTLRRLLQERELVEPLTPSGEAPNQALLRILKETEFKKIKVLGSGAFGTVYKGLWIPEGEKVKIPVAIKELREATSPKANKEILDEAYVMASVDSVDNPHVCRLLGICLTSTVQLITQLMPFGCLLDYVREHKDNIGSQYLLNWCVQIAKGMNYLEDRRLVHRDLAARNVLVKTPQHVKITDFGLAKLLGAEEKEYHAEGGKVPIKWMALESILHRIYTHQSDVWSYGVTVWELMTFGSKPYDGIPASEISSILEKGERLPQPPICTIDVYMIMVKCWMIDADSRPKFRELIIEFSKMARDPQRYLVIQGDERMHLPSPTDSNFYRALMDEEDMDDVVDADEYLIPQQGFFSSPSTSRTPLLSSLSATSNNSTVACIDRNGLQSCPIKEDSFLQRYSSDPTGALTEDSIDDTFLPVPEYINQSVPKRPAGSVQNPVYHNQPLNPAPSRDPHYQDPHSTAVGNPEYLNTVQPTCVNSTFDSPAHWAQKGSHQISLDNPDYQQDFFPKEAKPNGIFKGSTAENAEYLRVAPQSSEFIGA
EGFR^WT kinase, sequence (P00533 25-1210): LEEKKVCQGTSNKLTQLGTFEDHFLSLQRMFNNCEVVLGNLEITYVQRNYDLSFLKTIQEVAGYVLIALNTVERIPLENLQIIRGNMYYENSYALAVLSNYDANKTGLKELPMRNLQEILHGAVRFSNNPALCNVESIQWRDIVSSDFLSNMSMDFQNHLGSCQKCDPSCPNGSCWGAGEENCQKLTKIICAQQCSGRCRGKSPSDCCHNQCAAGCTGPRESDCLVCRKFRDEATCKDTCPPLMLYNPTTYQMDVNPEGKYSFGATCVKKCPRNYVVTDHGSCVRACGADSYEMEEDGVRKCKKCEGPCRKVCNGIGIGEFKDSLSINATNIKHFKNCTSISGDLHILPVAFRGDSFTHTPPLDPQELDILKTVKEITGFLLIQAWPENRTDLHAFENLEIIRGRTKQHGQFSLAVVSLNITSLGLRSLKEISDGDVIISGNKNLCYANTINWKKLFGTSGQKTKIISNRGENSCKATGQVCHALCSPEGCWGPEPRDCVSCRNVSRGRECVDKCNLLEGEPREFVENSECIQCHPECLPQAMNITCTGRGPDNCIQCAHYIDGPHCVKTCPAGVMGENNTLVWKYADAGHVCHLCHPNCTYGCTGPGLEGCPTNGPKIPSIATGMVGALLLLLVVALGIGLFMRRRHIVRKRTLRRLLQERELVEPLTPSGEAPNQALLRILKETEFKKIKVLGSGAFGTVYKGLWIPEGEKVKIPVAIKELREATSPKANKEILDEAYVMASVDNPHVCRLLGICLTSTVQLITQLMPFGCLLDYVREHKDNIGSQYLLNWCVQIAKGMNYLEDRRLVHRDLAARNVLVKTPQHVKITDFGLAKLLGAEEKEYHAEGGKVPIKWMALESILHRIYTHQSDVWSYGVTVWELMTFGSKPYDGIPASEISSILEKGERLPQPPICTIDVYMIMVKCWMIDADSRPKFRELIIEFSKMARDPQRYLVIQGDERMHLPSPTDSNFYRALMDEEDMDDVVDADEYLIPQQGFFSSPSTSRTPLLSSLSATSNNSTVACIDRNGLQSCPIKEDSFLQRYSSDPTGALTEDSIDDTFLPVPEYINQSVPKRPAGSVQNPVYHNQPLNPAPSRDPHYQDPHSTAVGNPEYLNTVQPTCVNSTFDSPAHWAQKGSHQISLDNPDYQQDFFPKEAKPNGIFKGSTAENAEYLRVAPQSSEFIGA
T1 sequence (P04626 23-1255): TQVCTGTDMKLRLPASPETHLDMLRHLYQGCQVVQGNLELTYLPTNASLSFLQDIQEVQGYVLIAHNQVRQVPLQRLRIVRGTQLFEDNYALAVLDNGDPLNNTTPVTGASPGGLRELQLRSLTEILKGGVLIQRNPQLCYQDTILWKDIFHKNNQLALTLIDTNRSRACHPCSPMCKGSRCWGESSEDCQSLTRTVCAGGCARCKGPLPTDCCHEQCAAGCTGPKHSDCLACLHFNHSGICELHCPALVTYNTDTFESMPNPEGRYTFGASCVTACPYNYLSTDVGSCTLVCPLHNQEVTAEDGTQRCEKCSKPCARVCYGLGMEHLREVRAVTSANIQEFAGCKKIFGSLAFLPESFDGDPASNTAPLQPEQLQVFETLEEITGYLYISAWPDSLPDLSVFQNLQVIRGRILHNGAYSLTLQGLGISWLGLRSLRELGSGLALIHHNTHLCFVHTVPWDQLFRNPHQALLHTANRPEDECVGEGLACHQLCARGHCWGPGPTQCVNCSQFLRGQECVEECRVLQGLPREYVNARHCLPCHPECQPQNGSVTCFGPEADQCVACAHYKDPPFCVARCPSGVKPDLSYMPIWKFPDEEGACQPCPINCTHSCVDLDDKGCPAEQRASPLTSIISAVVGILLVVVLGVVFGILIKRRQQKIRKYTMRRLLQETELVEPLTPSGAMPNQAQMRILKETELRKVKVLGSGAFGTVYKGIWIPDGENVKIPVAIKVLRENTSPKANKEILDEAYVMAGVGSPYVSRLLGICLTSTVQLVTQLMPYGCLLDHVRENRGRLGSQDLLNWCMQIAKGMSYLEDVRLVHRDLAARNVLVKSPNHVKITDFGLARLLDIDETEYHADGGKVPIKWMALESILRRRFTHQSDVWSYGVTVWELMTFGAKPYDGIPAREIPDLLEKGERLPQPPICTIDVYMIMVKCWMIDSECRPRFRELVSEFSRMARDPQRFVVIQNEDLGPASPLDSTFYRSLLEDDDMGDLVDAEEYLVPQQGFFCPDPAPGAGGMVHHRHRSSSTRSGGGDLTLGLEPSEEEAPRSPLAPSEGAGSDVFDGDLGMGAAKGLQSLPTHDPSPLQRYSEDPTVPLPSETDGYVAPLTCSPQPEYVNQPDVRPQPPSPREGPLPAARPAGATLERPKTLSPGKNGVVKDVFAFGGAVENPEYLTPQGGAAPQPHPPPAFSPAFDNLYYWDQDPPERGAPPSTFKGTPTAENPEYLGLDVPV

Row | GI50 [1] | IC50 [2] | IC50 [3] | Structure (SMILES)
1 | 10 to 100 nM | < 10 nM | < 10 nM | COc1c(NC(=O)/C=C/[C@H]2CCCN2C)ccc2ncnc(Nc3ccc(OCc4ccccn4)c(Cl)c3)c12 [Example 4, (R,E)-N-(4-((3-chloro-4-(pyridin-2-ylmethoxy)phenyl)amino)-5-methoxyquinazolin-6-yl)-3-(1-methylpyrrolidin-2-yl)acrylamide]
2 | 10 to 100 nM | < 10 nM | < 10 nM | CCN1CCC[C@@H]1/C=C/C(=O)Nc1ccc2ncnc(Nc3ccc(OCc4ccccn4)c(Cl)c3)c2c1OC [Example 29, (R,E)-N-(4-((3-chloro-4-(pyridin-2-ylmethoxy)phenyl)amino)-5-methoxyquinazolin-6-yl)-3-(1-ethylpyrrolidin-2-yl)acrylamide]
3 | 10 to 100 nM | < 10 nM | < 10 nM | COCCCOc1c(NC(=O)/C=C/[C@H]2CCCN2C)ccc2ncnc(Nc3ccc(OCc4ccccn4)c(Cl)c3)c12 [Example 9, (R,E)-N-(4-((3-chloro-4-(pyridin-2-ylmethoxy)phenyl)amino)-5-(3-methoxypropoxy)quinazolin-6-yl)-3-(1-methylpyrrolidin-2-yl)acrylamide]
